Laboratory results as given in patent US11236069B2, “KIF18A inhibitors” (AMGEN INC., priority 2018, dated 2022).
pIC50: −log10 of the molar value.

target: Recombinant human KIF18A (1-467 His-tagged) protein (Homo sapiens (Human), UniProt Q8NI77); assay: KIF18A Enzyme Assay: microtubule-stimulated ATPase activity (ADP-Glo); details: read-out: KIF18A ATPase IC50; 30 nM KIF18A, 30 μg/mL pig microtubules, ATP at Km 75 μM, ADP-Glo luminescence
Sequence (Q8NI77 1-467): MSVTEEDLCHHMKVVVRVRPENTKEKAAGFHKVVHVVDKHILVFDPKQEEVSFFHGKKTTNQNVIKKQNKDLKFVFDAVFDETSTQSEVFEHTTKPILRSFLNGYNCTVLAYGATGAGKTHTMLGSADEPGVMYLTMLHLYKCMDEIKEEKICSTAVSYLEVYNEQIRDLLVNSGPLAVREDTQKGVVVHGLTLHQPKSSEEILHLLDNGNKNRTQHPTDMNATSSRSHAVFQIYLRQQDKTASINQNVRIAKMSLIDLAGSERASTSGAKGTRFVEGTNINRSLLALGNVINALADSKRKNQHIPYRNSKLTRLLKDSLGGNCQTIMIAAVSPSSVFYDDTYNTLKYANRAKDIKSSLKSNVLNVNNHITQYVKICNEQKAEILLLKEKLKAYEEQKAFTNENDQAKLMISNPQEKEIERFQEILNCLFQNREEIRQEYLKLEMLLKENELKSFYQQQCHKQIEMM
Sequence (P02550 whole entry partner): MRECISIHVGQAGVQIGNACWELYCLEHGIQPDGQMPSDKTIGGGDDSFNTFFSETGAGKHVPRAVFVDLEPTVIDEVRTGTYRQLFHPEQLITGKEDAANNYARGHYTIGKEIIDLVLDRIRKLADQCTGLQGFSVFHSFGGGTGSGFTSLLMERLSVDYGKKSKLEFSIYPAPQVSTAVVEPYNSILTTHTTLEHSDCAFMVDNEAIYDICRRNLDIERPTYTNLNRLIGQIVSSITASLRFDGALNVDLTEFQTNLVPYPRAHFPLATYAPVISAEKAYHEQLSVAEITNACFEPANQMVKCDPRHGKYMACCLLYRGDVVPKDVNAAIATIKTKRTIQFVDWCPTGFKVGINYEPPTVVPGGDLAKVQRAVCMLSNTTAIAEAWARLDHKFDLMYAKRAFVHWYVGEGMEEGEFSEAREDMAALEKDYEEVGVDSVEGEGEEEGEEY
Sequence (P02554 whole entry partner): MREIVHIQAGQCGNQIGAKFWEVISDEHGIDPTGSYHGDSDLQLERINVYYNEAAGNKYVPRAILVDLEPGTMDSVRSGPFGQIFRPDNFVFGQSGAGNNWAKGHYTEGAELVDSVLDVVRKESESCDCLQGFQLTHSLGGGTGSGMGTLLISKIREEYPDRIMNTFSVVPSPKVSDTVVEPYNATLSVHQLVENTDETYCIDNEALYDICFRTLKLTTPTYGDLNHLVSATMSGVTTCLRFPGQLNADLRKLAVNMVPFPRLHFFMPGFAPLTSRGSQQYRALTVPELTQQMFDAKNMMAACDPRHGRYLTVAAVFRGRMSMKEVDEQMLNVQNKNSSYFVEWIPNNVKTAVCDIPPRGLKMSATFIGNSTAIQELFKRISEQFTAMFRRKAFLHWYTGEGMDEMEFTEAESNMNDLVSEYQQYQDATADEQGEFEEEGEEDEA
Source text: KIF18A Enzyme Assay: Microtubule-stimulated ATPase activity assay is used to measure KIF18A enzyme activity after treatment with compound. Compounds were 2-fold serially diluted in DMSO (Sigma Inc) over 22-point concentration range. […] The assay measures ADP formed from the ATPase reaction.

SMILES	pIC50
Cc1cc(NC(=O)c2ccc(NS(=O)(=O)CCO)cc2N2CCC3(CC2)CC3)nc(N2CCO[C@H](C)C2)n1 [Example 3, (R)-4-((2-Hydroxyethyl)sulfonamido)-N-(6-methyl-2-(2-methylmorpholino)pyrimidin-4-yl)-2-(6-azaspiro[2.5]octan-6-yl)benzamide]	7.24
Cc1cc(NC(=O)c2ccc(NS(=O)(=O)[C@@H](CO)CF)cc2N2CCC3(CC2)CC3)nc(N2CCC(F)(F)CC2)n1 [Example 16-2, (S)-N-(2-(4,4-Difluoropiperidin-1-yl)-6-methylpyrimidin-4-yl)-4-((2-fluoro-1-(hydroxymethyl)ethyl)sulfonamido)-2-(6-azaspiro[2.5]octan-6-yl)benzamide]	7.02
Cc1cc(NC(=O)c2ccc(NS(=O)(=O)[C@H](C)CO)cc2N2CCC3(CC2)CC3)nc(N2CCO[C@H](C)C2)n1 [Example 6-23-2, 4-(((R)-2-Hydroxy-1-methylethyl)sulfonamido)-N-(6-methyl-2-((R)-2-methylmorpholino)pyrimidin-4-yl)-2-(6-azaspiro[2.5]octan-6-yl)benzamide]	7.43
CC[S@@](=N)(=O)c1ccc(C(=O)Nc2cc(C)nc(N3CCC(F)(F)CC3)n2)c(N2CCC3(CC2)CC3)c1 [Example 19-3, 2-(6-Azaspiro[2.5]octan-6-yl)-N-(2-(4,4-difluoro-1-pieridinyl)-6-methyl-4-pyrimidinyl)-4-(S-ethylsulfonimidoyl)benzamide]	7.11
Cc1cc(NC(=O)c2ccc(NS(=O)(=O)CCO)cc2N2CCC3(CC2)CC3)nc(N2CC[C@H]3C[C@H]3C2)n1 [Example 11-43, N-(2-((1R,6R)-3-Azabicyclo[4.1.0]heptan-3-yl)-6-methylpyrimidin-4-yl)-4-((2-hydroxyethyl)sulfonamido)-2-(6-azaspiro[2.5]octan-6-yl)benzamide]	7.46
O=C(Nc1ccnc(N2CCC(F)(F)CC2)c1)c1ccc(S(=O)(=O)NCCO)cc1N1CCC2(CC1)CC2 [Example 17, N-(2-(4,4-Difluoropiperidin-1-yl)pyridin-4-yl)-4-(N-(2-hydroxyethyl)sulfamoyl)-2-(6-azaspiro[2.5]octan-6-yl)benzamide]	7.64
O=C(Nc1ccnc(N2CCC(F)(F)CC2)n1)c1ccc(NS(=O)(=O)CCO)cc1N1CCC2(CC1)CC2 [Example 11-57, N-(2-(4,4-Difluoropiperidin-1-yl)pyrimidin-4-yl)-4-((2-hydroxyethyl)sulfonamido)-2-(6-azaspiro[2.5]octan-6-yl)benzamide]	7.66
Cc1cc(NC(=O)c2ccc(NS(=O)(=O)CCO)cc2N2CCC3(CC2)CC3)nc(N2CC(O)(C(F)(F)F)C2)n1 [Example 11-18, N-(2-(3-Hydroxy-3-(trifluoromethyl)azetidin-1-yl)-6-methylpyrimidin-4-yl)-4-((2-hydroxyethyl)sulfonamido)-2-(6-azaspiro[2.5]octan-6-yl)benzamide]	7.19
Cc1cc(NC(=O)c2ccc(NS(=O)(=O)CCO)cc2N2CCC3(CC2)CC3)nc(N2CCC[C@H](O)C2)n1 [Example 11-53, (S)-4-((2-Hydroxyethyl)sulfonamido)-N-(2-(3-hydroxypiperidin-1-yl)-6-methylpyrimidin-4-yl)-2-(6-azaspiro[2.5]octan-6-yl)benzamide]	6.98
Cc1cc(NC(=O)c2ccc([S@](=N)(=O)C3CC3)cc2N2CCC3(CC2)CC3)nc(N2CCO[C@H](C)C2)n1 [Example 19-7, 2-(6-Azaspiro[2.5]octan-6-yl)-4-(S-cyclopropylsulfonimidoyl)-N-(6-methy-2-((2R)-2-methyl-4-moprpholinyl)-4-pyrimidinyl)benzamide]	6.71
O=C(Nc1ccnc(OCCC(F)(F)F)n1)c1ccc(S(=O)(=O)NCCO)cc1N1CCC2(CC1)CC2 [Example 17-1, 4-(N-(2-Hydroxyethyl)sulfamoyl)-2-(6-azaspiro[2.5]octan-6-yl)-N-(2-(3,3,3-trifluoropropoxy)pyrimidin-4-yl)benzamide]	7.57
Cc1cc(NC(=O)c2ccc(NS(=O)(=O)CCO)cc2N2CCC3(CC2)CC3)cc(OCCC(F)(F)F)n1 [Example 11-60, 4-((2-Hydroxyethyl)sulfonamido)-N-(2-methyl-6-(3,3,3-trifluoropropoxy)pyridin-4-yl)-2(6-azaspiro[2.5]octan-6-yl)benzamide]	7.08
Cc1cc(NC(=O)c2ccc(NS(=O)(=O)C3(CO)CC3)cc2N2CCC3(CC2)CC3)nc(N2CCC(F)(F)CC2)n1 [Example 11-69]	7.00
C[C@H]1CN(c2nccc(NC(=O)c3ccc(NS(=O)(=O)CCO)cc3N3CCC4(CC3)CC4)n2)CCO1 [Example 11-1, (S)-4-((2-Hydroxyethyl)sulfonamido)-N-(2-(2-methylmorpholino)pyrimidin-4-yl)-2-(6-azaspiro[2.5]octan-6-yl)benzamide]	7.43
Cc1cc(NC(=O)c2ccc(NS(=O)(=O)C3CCOC3)cc2N2CCC3(CC2)CC3)nc(N2CC(F)(F)C2)n1 (stereo in doubt) [Example 11-71, (R)-N-(2-(3,3-Difluoroazetidin-1-yl)-6-methylpyrimidin-4-yl)-2-(6-azaspiro[2.5]octan-6-yl)-4-((tetrahydrofuran)-3-sulfonamido)benzamide]	7.38
Cc1cc(NC(=O)c2ccc(NS(=O)(=O)CF)cc2N2CCC3(CC2)CC3)nc(N2CCO[C@H](C)C2)n1 [Example 6-3, (R)-4-((Fluoromethyl)sulfonamido)-N-(6-methyl-2-(2-methylmorpholino)pyrimidin-4-yl)-2-(6-azaspiro[2.5]octan-6-yl)benzamide]	7.10
Cc1cc(NC(=O)c2ccc(NS(=O)(=O)C3(C)CC3)cc2N2CCC3(CC2)CC3)nc(N2CCC(F)(F)CC2)n1 [Example 2-8, N-(2-(4,4-Difluoropiperidin-1-yl)-6-methylpyrimidin-4-yl)-4-((1-methylcyclopropan)-1-sulfonamido)-2-(6-azaspiro[2.5]octan-6-yl)benzamide]	6.15
Cc1cc(NC(=O)c2ccc(NS(=O)(=O)CCO)cc2N2CCC3(CC2)CC3)nc(N2CC(C(F)(F)F)C2)n1 [Example 11-12, 4-((2-Hydroxyethyl)sulfonamido)-N-(6-methyl-2-(3-(trifluoromethyl)azetidin-1-yl)pyrimidin-4-yl)-2-(6-azaspiro[2.5]octan-6-yl)benzamide]	7.03
Cc1cc(NC(=O)c2ccc(NS(=O)(=O)CCO)cc2N2CCC3(CC2)CC3)nc(N2CC(C#N)C2)n1 [Example 11-13, N-(2-(3-Cyanoazetidin-1-yl)-6-methylpyrimidin-4-yl)-4-((2-hydroxyethyl)sulfonamido)-2-(6-azaspiro[2.5]octan-6-yl)benzamide]	7.17
Cc1cc(NC(=O)c2ccc(NS(=O)(=O)C3COC3)cc2N2CCC3(CC2)CC3)nc(N2CCC(F)(F)CC2)n1 [Example 6-12, N-(2-(4,4-Difluoropiperidin-1-yl)-6-methylpyrimidin-4-yl)-4-(oxetane-3-sulfonamido)-2-(6-azaspiro[2.5]octan-6-yl)benzamide]	7.40
Cc1cc(NC(=O)c2ccc(NS(=O)(=O)C3CC3)cc2N2CCC3(CC2)CC3)nc(N2CCC(F)(F)CC2)n1 [Example 6-16, 4-(Cyclopropanesulfonamido)-N-(2-(4,4-difluoropiperidin-1-yl)-6-methylpyrimidin-4-yl)-2-(6-azaspiro[2.5]octan-6-yl)benzamide]	7.28
Cc1cc(NC(=O)c2ccc(NS(=O)(=O)CCO)cc2N2CCC3(CC2)CC3)nc(N2CCC(C#N)CC2)n1 [Example 11-33, N-(2-(4-Cyanopiperidin-1-yl)-6-methylpyrimidin-4-yl)-4-((2-hydroxyethyl)sulfonamido)-2-(6-azaspiro[2.5]octan-6-yl)benzamide]	7.06
Cc1cc(NC(=O)c2ccc(S(=N)(=O)C3COC3)cc2N2CCC3(CC2)CC3)nc(N2CCC(F)(F)CC2)n1 (centres unmarked) [Example 19-1, N-(2-(4,4-Difluoropiperidin-1-yl)-6-methylpyrimidin-4-yl)-4-(oxetane-3-sulfonimidoyl)-2-(6-azaspiro[2.5]octan-6-yl)benzamide]	6.79
C[C@@H]1CN(c2nccc(NC(=O)c3ccc(S(C)(=O)=O)cc3N3CCC4(CC3)CC4)n2)CCO1 [Example 2-7, (R)-N-(2-(2-Methylmorpholino)pyrimidin-4-yl)-4-(methylsulfonyl)-2-(6-azaspiro[2.5]octan-6-yl)benzamide]	6.62
Cc1cc(NC(=O)c2ccc(NS(=O)(=O)C[C@H](C)O)cc2N2CCC3(CC2)CC3)nc(N2CC(F)(F)C2)n1 (single isomer, unassigned) [Example 10-2]	7.14
Cc1cc(NC(=O)c2ccc(NS(=O)(=O)C[C@@H](C)O)cc2N2CCC3(CC2)CC3)nc(N2CCO[C@H](C)C2)n1 [Example 6-27-1, 4-(((R)-2-Hydroxypropoyl)sulfonamido)-N-(6-methyl-2-((R)-2-methylmorpholino)pyrimidin-4-yl)-2-(6-azaspiro[2.5]octan-6-yl)benzamide]	6.79
C[C@H](O)CS(=O)(=O)Nc1ccc(C(=O)Nc2ccnc(N3CCO[C@H](C)C3)n2)c(N2CCC3(CC2)CC3)c1 [Example 6-33-1, 4-(((S)-2-Hydroxypropyl)sulfonamido)-N-(2-((R)-2-methylmorpholino)pyrimidin-4-yl)-2-(6-azaspiro[2.5]octan-6-yl)benzamide]	6.94
Cc1cc(NC(=O)c2ccc(NS(=O)(=O)C3COC3)cc2N2CCC3(CC2)CC3)nc(N2CC(F)(F)C2)n1 [Example 11-23, N-(2-(3,3-Difluoroazetidin-1-yl)-6-methylpyrimidin-4-yl)-4-(oxetane-3-sulfonamido)-2-(6-azaspiro[2.5]octan-6-yl)benzamide]	7.31
C[C@@H]1CN(c2nccc(NC(=O)c3ccc(NS(=O)(=O)[C@H](C)CO)cc3N3CCC4(CC3)CC4)n2)CCO1 [Example 6-24-2, 4-(((R)-2-hydroxy-1-methylethyl)sulfonamido)-N-(2-((R)-2-methylmorpholino)pyrimidin-4-yl)-2-(6-azaspiro[2.5]octan-6-yl)benzamide]	7.55
